Experimental data from patent US11382956B2, “Amylin analogues” (Zealand Pharma A/S, priority 2016, dated 2022).
Numbered stars: 1 amine (or outer) side, 2 acyl side, 3 side chain; on linkers, the order of the positions; unused ones are H or OH. Bridge positions count the residues as written; N and C are the ends. Square brackets hold non-standard residues; d marks the D form. Peptide text beside a SMILES is read from it. * marks the point of attachment. C20 diacid = O=C(O)CCCCCCCCCCCCCCCCCCC(=O)*; γGlu = O=C(O)[C@H](CCC(=O)[*:2])N[*:1]; Hyp = O=C(O)[C@@H]1C[C@@H](O)CN1; NMeI = CC[C@H](C)[C@H](NC)C(=O)O; Aad = N[C@@H](CCCC(=O)O)C(=O)O; Orn = NCCC[C@H](N)C(=O)O; Sar = CNCC(=O)O

How the values were obtained:
[1] = Assessment of chemical stability in 40 mM buffers at 40° C. (RP-HPLC); format: physicochemical; details: 1 mg/mL; for % degradation after 72 h at 40° C. pH4 acetate: acetate buffer pH 4, 72 h; for % degradation after 72 h at 40° C. pH6 phosphate: phosphate buffer pH 6, 72 h; for % degradation after 72 h at 40° C. pH7 phosphate: phosphate buffer pH 7, 72 h; for % degradation after 14 days at 40° C. pH4 acetate: acetate buffer pH 4, 14 days; for % degradation after 14 days at 40° C. pH6 phosphate: phosphate buffer pH 6, 14 days; for % degradation after 14 days at 40° C. pH7 phosphate: phosphate buffer pH 7, 14 days
Summary of the method: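 Peptides at 1 mg/mL in 40 mM acetate pH 4 or phosphate pH 6 and 7 were held at 40° C for 3 and 14 days. Main-peak area-% by C8 RP-HPLC, UV 220 nm; % degradation = change in main-peak area-% versus t=0.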

[2] = Assessment of physical stability: fibril formation by Thioflavin T fluorescence; format: physicochemical; design: key: FND = fibrillation not detected; FD = fibrillation detected; details: 1 mg/mL peptide; for Fibrillation (in buffer) pH4 acetate: 50 mM acetate buffer pH 4.0, 96 hours at 40° C.; for Fibrillation (in buffer) pH7 histidine: 50 mM histidine buffer pH 7.0, 96 hours at 40° C.; for Fibrillation (in buffer) pH7 phosphate: 50 mM phosphate buffer pH 7.0, 96 hours at 40° C.
Method: Solutions containing (i) 1 mg/mL of test peptide, 40 μM ThT and 50 mM phosphate (Ph) buffer (pH 7.0), (ii) 1 mg/mL of test peptide, 40 μM ThT and 50 mM histidine (His) buffer (pH 7.0), and (iii) 1 mg/mL of test peptide, 40 μM ThT and 50 mM acetate (Ac) buffer (pH 4.0), were loaded in a 96-well black fluorescence plate (clear bottom) in triplicate. Data were collected at fixed intervals of 10 min, each preceded by 300 s of automixing (agitation), over a period of 96 hours at 40° C. Physical stability is determined by measuring the fluorescence intensity over time. A significant increase in intensity is rated as fibrillation detected (FD).

[3] = target: T1, recombinant human calcitonin receptor (hCT-R) (Homo sapiens, UniProt P30988); experiment: hCT-R cAMP assay (AlphaScreen) in 1321N1 cells; format: cell-based; details: cAMP formation, 45 min stimulation
T1 construct: host or cells: human astrocytoma cell line 1321N1
T1 sequence (P30988 25-474): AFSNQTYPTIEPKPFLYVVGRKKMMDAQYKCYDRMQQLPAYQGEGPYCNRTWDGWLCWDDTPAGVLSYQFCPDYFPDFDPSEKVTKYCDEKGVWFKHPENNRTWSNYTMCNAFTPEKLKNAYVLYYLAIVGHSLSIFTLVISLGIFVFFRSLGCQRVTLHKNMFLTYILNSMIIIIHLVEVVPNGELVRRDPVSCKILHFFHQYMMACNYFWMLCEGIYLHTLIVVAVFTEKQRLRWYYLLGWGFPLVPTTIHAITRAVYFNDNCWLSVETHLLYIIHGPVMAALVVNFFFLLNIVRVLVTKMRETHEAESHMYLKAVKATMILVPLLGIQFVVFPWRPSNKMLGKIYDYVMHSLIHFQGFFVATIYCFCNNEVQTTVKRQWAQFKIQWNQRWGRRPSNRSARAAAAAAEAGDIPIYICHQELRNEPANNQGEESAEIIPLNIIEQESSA
Summary of the method: (§1)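 1321N1 astrocytoma cells expressing recombinant human calcitonin receptor alone or with RAMP3 (AMY3) stimulated 45 min at room temperature with peptide in IBMX-containing buffer. cAMP quantified by AlphaScreen after 1 h bead incubation; EC50 fitted from at least 7 concentrations.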

[4] = target: T2, recombinant human amylin 3 receptor (hAMYR3) (Homo sapiens, UniProt O60896+P30988); experiment: hAMYR3 cAMP assay (AlphaScreen) in 1321N1 cells; format: cell-based; details: cAMP formation, 45 min stimulation
T2 construct: host or cells: human astrocytoma cell line 1321N1
T2 sequence (P30988 25-474): T1 sequence (P30988 25-474)
T2 sequence (O60896 24-148 partner): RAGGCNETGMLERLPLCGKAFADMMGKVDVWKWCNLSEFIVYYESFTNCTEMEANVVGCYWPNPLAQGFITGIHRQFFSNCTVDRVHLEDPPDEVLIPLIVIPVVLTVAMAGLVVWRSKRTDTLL
Summary of the method: as §1

Row | Compound | % degradation after 72 h at 40° C. pH4 acetate [1] [%] | % degradation after 72 h at 40° C. pH6 phosphate [1] [%] | % degradation after 72 h at 40° C. pH7 phosphate [1] [%] | Fibrillation (in buffer) pH4 acetate [2] | Fibrillation (in buffer) pH7 histidine [2] | Fibrillation (in buffer) pH7 phosphate [2] | EC50 [3] [nM] | EC50 [4] [nM] | % degradation after 14 days at 40° C. pH4 acetate [1] [%] | % degradation after 14 days at 40° C. pH6 phosphate [1] [%] | % degradation after 14 days at 40° C. pH7 phosphate [1] [%]
1 | CC[C@H](C)[C@@H](C(=O)N1CCC[C@H]1C(=O)N[C@@H](CO)C(=O)N[C@@H](CO)C(=O)N[C@H](C(=O)N[C@@H](CCC(=O)O)C(=O)N[C@H](C(=O)NCC(=O)N[C@@H](CO)C(=O)N[C@@H](CC(N)=O)C(=O)N[C@H](C(=O)N1C[C@H](O)C[C@H]1C(N)=O)[C@@H](C)O)C(C)C)[C@@H](C)O)N(C)C(=O)[C@H](C)NC(=O)CN(C)C(=O)[C@H](Cc1ccccc1)NC(=O)[C@H](CO)NC(=O)[C@H](CO)NC(=O)[C@H](CCCNC(=N)N)NC(=O)[C@H](CCC(N)=O)NC(=O)[C@H](CC(C)C)NC(=O)[C@H](Cc1ccccc1)NC(=O)[C@H](Cc1c[nH]cn1)NC(=O)[C@H](C)NC(=O)[C@H](CC(C)C)NC(=O)[C@H](CCCNC(=N)N)NC(=O)[C@H](CCC(=O)O)NC(=O)[C@@H](NC(=O)[C@H](C)NC(=O)[C@@H]1CCCCNC(=O)C[C@H](NC(=O)[C@H](CCCNC(=N)N)NC(=O)CC[C@H](NC(=O)CCCCCCCCCCCCCCCCCCC(=O)O)C(=O)O)C(=O)NCC(=O)N[C@@H]([C@@H](C)O)C(=O)N[C@@H](C)C(=O)N[C@@H]([C@@H](C)O)C(=O)N1)[C@@H](C)O [Compound 17, [19CD]-isoGlu-RD()GTATK()ATERLAHFLQRSSF-Gly(Me)-A-Ile(Me)-PSSTEVGSNT-Hyp-NH2] ({C20 diacid-γGlu}-RDGTATKATERLAHFLQRSSF[Sar]A[NMeI]PSSTEVGSNT[Hyp]-NH2; lactam 2-7) | 1.2 | <1 | <1 | FND | FND | FND | 0.058 | 0.025 | – | – | –
2 | CC[C@H](C)[C@@H](C(=O)N[C@@H](CC(C)C)C(=O)N[C@@H](CO)C(=O)N[C@@H](CO)C(=O)N[C@H](C(=O)N[C@@H](CCC(=O)O)C(=O)N[C@H](C(=O)NCC(=O)N[C@@H](CO)C(=O)N[C@@H](CC(N)=O)C(=O)N[C@H](C(=O)N1C[C@H](O)C[C@H]1C(N)=O)[C@@H](C)O)C(C)C)[C@@H](C)O)N(C)C(=O)[C@H](C)NC(=O)CN(C)C(=O)[C@H](Cc1ccccc1)NC(=O)[C@H](CO)NC(=O)[C@H](CO)NC(=O)[C@H](CCCNC(=N)N)NC(=O)[C@H](CCC(N)=O)NC(=O)[C@H](CC(C)C)NC(=O)[C@H](Cc1ccccc1)NC(=O)[C@H](CCCNC(=N)N)NC(=O)[C@H](C)NC(=O)[C@H](CC(C)C)NC(=O)[C@H](CCCNC(=N)N)NC(=O)[C@H](CCC(=O)O)NC(=O)[C@@H](NC(=O)[C@H](C)NC(=O)[C@@H]1CCCNC(=O)C[C@H](NC(=O)[C@H](CCCNC(=N)N)NC(=O)CC[C@H](NC(=O)CCCCCCCCCCCCCCCCCCC(=O)O)C(=O)O)C(=O)NCC(=O)N[C@@H]([C@@H](C)O)C(=O)N[C@@H](C)C(=O)N[C@@H]([C@@H](C)O)C(=O)N1)[C@@H](C)O [Compound 10, [19CD]-isoGlu-RD()GTAT-Orn()-ATERLARFLQRSSF-Gly(Me)-A-Ile(Me)-LSSTEVGSNT-Hyp-NH2] ({C20 diacid-γGlu}-RDGTAT[Orn]ATERLARFLQRSSF[Sar]A[NMeI]LSSTEVGSNT[Hyp]-NH2; lactam 2-7) | <1 | <1 | <1 | FD | FND | FND | 0.345 | 0.068 | 1.9 | 1.8 | 9.1
3 | CC[C@H](C)[C@@H](C(=O)N[C@@H](CC(C)C)C(=O)N[C@@H](CO)C(=O)N[C@@H](CO)C(=O)N[C@H](C(=O)N[C@@H](CCC(=O)O)C(=O)N[C@H](C(=O)NCC(=O)N[C@@H](CO)C(=O)N[C@@H](CC(N)=O)C(=O)N[C@H](C(=O)N1C[C@H](O)C[C@H]1C(N)=O)[C@@H](C)O)C(C)C)[C@@H](C)O)N(C)C(=O)[C@H](C)NC(=O)CN(C)C(=O)[C@H](Cc1ccccc1)NC(=O)[C@H](CO)NC(=O)[C@H](CO)NC(=O)[C@H](CCCNC(=N)N)NC(=O)[C@H](CCC(N)=O)NC(=O)[C@H](CC(C)C)NC(=O)[C@H](Cc1ccccc1)NC(=O)[C@H](CCCC(=O)O)NC(=O)[C@H](C)NC(=O)[C@H](CC(C)C)NC(=O)[C@H](CCCNC(=N)N)NC(=O)[C@H](CCC(=O)O)NC(=O)[C@@H](NC(=O)[C@H](C)NC(=O)[C@@H]1CSSC[C@H](NC(=O)[C@H](CCCNC(=N)N)NC(=O)CC[C@H](NC(=O)CCCCCCCCCCCCCCCCCCC(=O)O)C(=O)O)C(=O)NCC(=O)N[C@@H]([C@@H](C)O)C(=O)N[C@@H](C)C(=O)N[C@@H]([C@@H](C)O)C(=O)N1)[C@@H](C)O [Ref. 4, [19CD]-isoGlu-RC()GTATC()ATERLA-Aad-FLQRSSF-Sar-A-Ile(Me)-LSSTEVGSNT-Hyp-NH2, reference compound] ({C20 diacid-γGlu}-RCGTATCATERLA[Aad]FLQRSSF[Sar]A[NMeI]LSSTEVGSNT[Hyp]-NH2; disulfide 2-7) | – | – | – | FND | FND | FND | 0.075 | 0.031 | 3.2 | 12.6 | 20.3
4 | CC[C@H](C)[C@@H](C(=O)N[C@@H](CC(C)C)C(=O)N[C@@H](CO)C(=O)N[C@@H](CO)C(=O)N[C@H](C(=O)N[C@@H](CCC(=O)O)C(=O)N[C@H](C(=O)NCC(=O)N[C@@H](CO)C(=O)N[C@@H](CC(N)=O)C(=O)N[C@H](C(=O)N1C[C@H](O)C[C@H]1C(N)=O)[C@@H](C)O)C(C)C)[C@@H](C)O)N(C)C(=O)[C@H](C)NC(=O)CN(C)C(=O)[C@H](Cc1ccccc1)NC(=O)[C@H](CO)NC(=O)[C@H](CO)NC(=O)[C@H](CCCNC(=N)N)NC(=O)[C@H](CCC(N)=O)NC(=O)[C@H](CC(C)C)NC(=O)[C@H](Cc1ccccc1)NC(=O)[C@H](Cc1c[nH]cn1)NC(=O)[C@H](C)NC(=O)[C@H](CC(C)C)NC(=O)[C@H](CCCNC(=N)N)NC(=O)[C@H](CCC(=O)O)NC(=O)[C@@H](NC(=O)[C@H](C)NC(=O)[C@@H]1CCCCNC(=O)C[C@H](NC(=O)[C@H](CCC(=O)O)NC(=O)CC[C@H](NC(=O)CCCCCCCCCCCCCCCCCCC(=O)O)C(=O)O)C(=O)NCC(=O)N[C@@H]([C@@H](C)O)C(=O)N[C@@H](C)C(=O)N[C@@H]([C@@H](C)O)C(=O)N1)[C@@H](C)O [Compound 11, [19CD]-isoGlu-ED()GTATK()ATERLAHFLQRSSF-Gly(Me)-A-Ile(Me)-LSSTEVGSNT-Hyp-NH2] ({C20 diacid-γGlu}-EDGTATKATERLAHFLQRSSF[Sar]A[NMeI]LSSTEVGSNT[Hyp]-NH2; lactam 2-7) | <1 | <1 | <1 | FND | FND | FND | 0.068 | 0.024 | – | – | –
